Consider five molecules from US20180112258A1, “MEDICAL USES AND METHODS FOR TREATING CANCER USING MONOPOLAR SPINDLE 1 (MPS1) KINASE INHIBITORS” (THE INSTITUTE OF CANCER RESEARCH: ROYAL CANCER HOSPITAL, priority 2015, published 2018).

Test [1] deals with parental HCT116 cells. As to the kind of experiment: Cell viability assay (CellTiterGlo, 4 days), parental HCT116. Format: cell-based, human. For orientation: Cellular ATP, detected with luciferase, serves as a proxy for viable cell number.
Test [2] deals with parental HCT116 cells. As to the kind of experiment: Time-lapse microscopy, time in mitosis, parental HCT116. It counts as cell-based, human. The procedure: For analysis by immunofluorescence, cells were fixed in 1% formaldehyde for 5 min at room temperature, quenched in glycine, washed in PBS-Triton X-100 (0.1% PBS-T) and incubated for 1 hour in primary antibodies in PBS-T: MAD2 (Bethyl Laboratories Inc., A300-301A), CDC2020 (Millipore, MAB3775), MPS1 (Millipore, 05-682), MPS1 pT33pS37 (Life Technologies, 44-1325G) and ACA (ImmunoVision, HST-0100). After PBS-T washes, cells were incubated with fluorescent-conjugated secondary antibodies (Life Technologies), stained with DAPI (Life Technologies) and mounted onto slides with Vectashield (Vector Labs). Images were acquired using a Zeiss LSM 710 confocal microscope and processed using Velocity 3D Image analysis software (PerkinElmer). Time-lapse micrscopy was performed in 96-well Ibidi plate (Thistle Scientific) using a Diaphot inverted microscope (Nikon), in a humidified CO2 chamber at 37° C., using a motorized stage (Prior Scientific), controlled by Simple PCI software (Compix).

For test [3], the system named is parental HCT116 cells. As to the kind of experiment: Flow cytometry cell cycle profiles, parental HCT116. Format: cell-based, human. The settings on record: 1 and 2 μM AZ3146, 24 hours. Here is the method: Cells were fixed overnight at −20° C. in 70% ethanol, washed in PBS, then incubated in 10 μg/ml propidium iodide and 0.5% RNase (Sigma) for 30 min and then analysed using LSRII flow cytometer (BD Biosciences).

Test [4] relates to HCT116 cells containing MPS1 p.M600T. As to the kind of experiment: Cell viability assay, HCT116 NvR clones with MPS1 p.M600T (NvR1 etc.). The settings on record: for Resistance conferred by mutation p.M600T: summary table of inhibitors vs mutations; for GI50: Homo sapiens.
Test [5] concerns HCT116 cells containing MPS1 p.C604W. As to the kind of experiment: Cell viability assay, HCT116 NvR clones with MPS1 p.C604W (NvR12 etc.). The settings on record: for resistance / potency in cell viability assay vs parental: p.C604W (NvR12); for GI50: Homo sapiens; for Resistance conferred by mutation p.C604W: summary table of inhibitors vs mutations.
Test [6] has as its target T1, recombinant full-length wild-type MPS1 (Homo sapiens, UniProt P33981).
T1 construct: For protein expression of full-length MPS1 proteins, Sf9 insect cells were grown at 27° C; made in house; host or cells: Sf9 insect cells (baculovirus, modified pFastBac1)
T1 sequence (P33981 1-857): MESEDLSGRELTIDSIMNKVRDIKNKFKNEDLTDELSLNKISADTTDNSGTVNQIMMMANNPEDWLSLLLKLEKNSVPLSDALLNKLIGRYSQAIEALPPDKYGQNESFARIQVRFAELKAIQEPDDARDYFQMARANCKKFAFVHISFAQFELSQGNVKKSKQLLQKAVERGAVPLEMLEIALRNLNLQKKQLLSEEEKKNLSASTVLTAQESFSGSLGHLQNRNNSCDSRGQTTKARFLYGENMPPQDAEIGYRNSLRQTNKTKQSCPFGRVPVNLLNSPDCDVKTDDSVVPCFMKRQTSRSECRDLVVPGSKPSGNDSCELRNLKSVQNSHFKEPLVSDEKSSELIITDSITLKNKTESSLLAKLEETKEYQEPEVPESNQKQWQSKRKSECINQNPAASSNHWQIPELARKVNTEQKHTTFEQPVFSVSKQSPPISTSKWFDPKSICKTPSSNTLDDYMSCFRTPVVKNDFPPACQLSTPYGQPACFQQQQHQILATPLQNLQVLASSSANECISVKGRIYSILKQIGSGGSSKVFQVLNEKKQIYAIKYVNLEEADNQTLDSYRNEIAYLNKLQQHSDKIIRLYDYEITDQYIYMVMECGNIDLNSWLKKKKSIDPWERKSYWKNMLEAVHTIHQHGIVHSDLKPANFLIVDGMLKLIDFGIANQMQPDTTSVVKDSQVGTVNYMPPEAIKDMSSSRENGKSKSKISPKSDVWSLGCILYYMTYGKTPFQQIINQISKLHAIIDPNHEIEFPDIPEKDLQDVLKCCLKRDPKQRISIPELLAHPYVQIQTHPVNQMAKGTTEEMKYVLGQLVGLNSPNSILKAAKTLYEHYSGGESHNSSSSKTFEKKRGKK
As to the kind of experiment: Recombinant MPS1 kinase assay (electrophoretic mobility shift), WT. It counts as biochemical. The settings on record: mean ± SD, quadruplicate. The procedure:
(§1) For high ATP concentration assays, 1 mM ATP was used. An ECHO® 550 (Labcyte Inc) acoustic dispenser was used to generate duplicate 8 point dilution curves directly into 384-well low-volume polystyrene assay plates (Corning Life Sciences). The reaction was carried out for 90 min at room temperature.

Test [7] addresses T2, recombinant full-length MPS1 p.C604W (Homo sapiens, UniProt P33981, C604W).
T2 construct: made in house; host or cells: Sf9 insect cells (baculovirus, modified pFastBac1)
T2 sequence (P33981 1-857 C604W): T1 sequence (P33981 1-857) with C604W
As to the kind of experiment: Recombinant MPS1 kinase assay (electrophoretic mobility shift), p.C604W. The settings on record: for IC50: C604W, mean ± SD, quadruplicate. It counts as biochemical. The procedure:
as §1

The mark [8] stands for this setting: ATP at Km, read-out: IC50 values at ATP Km.
Where [9] appears, read: IC50 values at 1 mM ATP, 1 mM ATP.

Where a chain is given by its changes, count along the chain named. Read-outs that look alike come from different tables or passages of the source.

As to `COc1cc(OC2CCN(C)CC2)ccc1Nc1ncc2c(n1)n(C1CCCC1)c(=O)n2C` [AZ3146], the “lethal concentration in cell viability assays” value with parental HCT116 cells [1] came out at 2 µM. In addition, in the test on parental HCT116 cells [1] (Homo sapiens, HCT-116), the GI50 stood at 800 nM. Moreover, in the test on parental HCT116 cells [2] (2 μM AZ3146), the “time to exit mitosis” value is on record as 10 min. Moreover, the “effect on cell cycle profile” value in the test with parental HCT116 cells [3] is “G1 and G2/M peaks are increasingly abolished”.
With `Cc1ncc(-c2ccc(Nc3cc4c(cn3)cc(-c3cnn(C)c3)n4C(=O)OC(C)C)c(F)c2)n1C` [Compound 3, isopropyl 6-(4-(1,2-dimethyl-1H-imidazol-5-yl)-2-fluorophenylamino)-2-(1-methyl-1H-pyrazol-4-yl)-1H-pyrrolo[3,2-c]pyridine-1-carboxylate], in test [4] (p.M600T (NvR1)), the “fold resistance in cell viability assay vs parental” value is given as around 2 fold. For the same molecule, the “Resistance conferred by mutation p.M600T” value in test [4] is listed as “R”. Moreover, the “resistance / potency in cell viability assay vs parental” value in test [5] is on record as “more potent”.
Regarding `CCc1cccc(CC)c1NC(=O)c1nn(C)c2c1CCc1cnc(Nc3ccc(C(=O)NC4CCN(C)CC4)cc3OC(F)(F)F)nc1-2` [NMS-P715], the 50% growth inhibitory concentration (GI50) in test [4] (HCT-116, read-out: GI50 NMS-P715, NvR1, p.M600T) turned out to be 2540 nM; in test [4] (HCT-116, read-out: GI50 NMS-P715, NvR2, p.M600T), 1850 nM; in test [4] (HCT-116, read-out: GI50 NMS-P715, NvR4, p.M600T), 2250 nM; in test [4] (HCT-116, read-out: GI50 NMS-P715, NvR5, p.M600T) it was 2480 nM; in test [4] (HCT-116, read-out: GI50 NMS-P715, NvR6, p.M600T) it was 2320 nM; in test [5] (HCT-116, read-out: GI50 NMS-P715, NvR9, p.C604W) it was 2150 nM. Further, the 50% growth inhibitory concentration (GI50) in test [5] (HCT-116, read-out: GI50 NMS-P715, NvR12, p.C604W) came out at 2430 nM; in test [5] (HCT-116, read-out: GI50 NMS-P715, NvR13, p.C604W), 4250 nM; in test [5] (HCT-116, read-out: GI50 NMS-P715, NvR14, p.C604W), 3730 nM; in test [5] (HCT-116, read-out: GI50 NMS-P715, NvR15, p.C604W), 3820 nM; in test [5] (HCT-116, read-out: GI50 NMS-P715, NvR16, p.C604W), 3260 nM; in test [5] (HCT-116, read-out: GI50 NMS-P715, NvR17, p.C604W), 3760 nM. Moreover, the GI50 in test [5] (HCT-116, read-out: GI50 NMS-P715, NvR18, p.C604W) came out at 3760 nM; in test [5] (HCT-116, read-out: GI50 NMS-P715, NvR19, p.C604W) it was 3500 nM; in test [5] (HCT-116, read-out: GI50 NMS-P715, NvR20, p.C604W), 3860 nM; in test [5] (HCT-116, read-out: GI50 NMS-P715, NvR21, p.C604W) it was 2120 nM; in test [5] (HCT-116, read-out: GI50 NMS-P715, NvR22, p.C604W), 2200 nM; in test [5] (HCT-116, read-out: GI50 NMS-P715, NvR23, p.C604W), 2270 nM. The 50% growth inhibitory concentration (GI50) turned out to be 2240 nM in test [5] (HCT-116, read-out: GI50 NMS-P715, NvR24, p.C604W); 4330 nM in test [5] (HCT-116, read-out: GI50 NMS-P715, NvR25, p.C604W); 2250 nM in test [5] (HCT-116, read-out: GI50 NMS-P715, NvR26, p.C604W); 4080 nM in test [5] (HCT-116, read-out: GI50 NMS-P715, NvR29, p.C604W); 1240 nM in test [5] (HCT-116, read-out: GI50 NMS-P715, NvR30, p.C604W); 2090 nM in test [5] (HCT-116, read-out: GI50 NMS-P715, NvR34, p.C604W). In test [5] (HCT-116, read-out: GI50 NMS-P715, NvR35, p.C604W), the GI50 worked out at 2440 nM. Further, the “mitotic exit (SAC override)” value in the test with parental HCT116 cells [2] (1 μM NMS-P715) was “rapidly exited mitosis”.
For the molecule `Cn1cc(-c2ccc(Nc3ccc(C#N)c(NC4CCCCC4)n3)cc2OCC#N)cn1` [ONCOII], the concentration for half-maximal inhibition (IC50) was found to be 10.8 ± 3.7 nM in test [6] (setting [8]), 110 ± 18 nM in test [6] (setting [9]), 2600 ± 650 nM in test [7] (setting [8]) and 8300 ± 2900 nM in test [7] (setting [9]). Besides, the “resistance in cell viability assay vs parental” value in test [4] (p.M600T (NvR1)) was “able to confer resistance”. Moreover, in test [4], the “Resistance conferred by mutation p.M600T” value was “R”. Further, the “resistance / potency in cell viability assay vs parental” value in test [5] is recorded as “able to confer resistance”. For the same molecule, in test [5], the “Resistance conferred by mutation p.C604W” value is “R”. Moreover, the “fold resistance of recombinant p.C604W vs wild-type protein” value in test [7] (recombinant full-length MPS1 (Table 2)) worked out at 75 fold.
As for `CC(C)(C)Nc1nc(Nc2ccc(C(N)=O)cc2)cc(N)c1C#N` [SNG12], in test [4], the “Resistance conferred by mutation p.M600T” value is on record as “R”. Further, the “Resistance conferred by mutation p.C604W” value in test [5] was “R”.

What is called GI50 is the concentration giving 50% growth inhibition. Broadly, the IC50 is the concentration at which inhibition is half-maximal.
